This is an account of results in PMC6287471 (International Journal for Parasitology: Drugs and Drug …, 2018).

Assay type in all cases: cell-based
One experiment deals with T1, Hco-ACC-2 F200Y (Haemonchus contortus, UniProt A0A219KWM7, F200Y).
T1 sequence (A0A219KWM7 18-443 F200Y): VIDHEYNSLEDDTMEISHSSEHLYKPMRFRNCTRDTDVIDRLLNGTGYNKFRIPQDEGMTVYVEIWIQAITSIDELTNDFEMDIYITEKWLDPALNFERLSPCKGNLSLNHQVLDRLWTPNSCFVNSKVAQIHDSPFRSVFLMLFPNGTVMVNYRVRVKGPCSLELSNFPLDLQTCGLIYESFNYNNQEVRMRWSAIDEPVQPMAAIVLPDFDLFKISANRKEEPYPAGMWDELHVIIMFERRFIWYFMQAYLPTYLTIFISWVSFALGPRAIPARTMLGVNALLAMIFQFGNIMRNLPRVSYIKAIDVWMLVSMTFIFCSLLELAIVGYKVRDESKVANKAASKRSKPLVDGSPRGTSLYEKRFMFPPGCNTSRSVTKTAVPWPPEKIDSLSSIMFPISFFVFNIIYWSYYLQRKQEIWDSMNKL
Put plainly: Two-electrode voltage clamp of Hco-ACC-2 F200Y mutant in Xenopus laevis oocytes.

The next experiment has as its target T2, Hco-ACC-2 W248Y (Haemonchus contortus, UniProt A0A219KWM7, W248Y).
T2 sequence (A0A219KWM7 18-443 W248Y): T1 sequence (A0A219KWM7 18-443 F200Y)
Put plainly: Two-electrode voltage clamp of Hco-ACC-2 W248Y mutant in Xenopus laevis oocytes. For orientation: Two-electrode voltage clamp holds a large cell at a set potential and records current.

A further experiment concerns the target T3, Hco-ACC-2 W248F (Haemonchus contortus, UniProt A0A219KWM7, W248F).
T3 sequence (A0A219KWM7 18-443 W248F): T1 sequence (A0A219KWM7 18-443 F200Y)
The experiment is described as follows: Two-electrode voltage clamp of Hco-ACC-2 W248F mutant in Xenopus laevis oocytes.

The target in the next experiment is T4, Hco-ACC-2 F200W/W248F (Haemonchus contortus, UniProt A0A219KWM7, F200W/W248F).
T4 sequence (A0A219KWM7 18-443 F200W/W248F): T1 sequence (A0A219KWM7 18-443 F200Y)

The target of another experiment is T5, Hco-ACC-2 F200W (Haemonchus contortus, UniProt A0A219KWM7, F200W).
T5 sequence (A0A219KWM7 18-443 F200W): T1 sequence (A0A219KWM7 18-443 F200Y)
The experiment is described as follows: Two-electrode voltage clamp of Hco-ACC-2 F200W mutant in Xenopus laevis oocytes.

[1] abbreviates: EC50 ± standard error, F200Y, F200Y mutant, n ≥ 5 oocytes.

Counter-ions that a name gives are not always drawn.

By EC50 is commonly meant the concentration giving half of the maximal effect. With `c1ccc([C@H]2CN3CCSC3=N2)cc1` [Levamisole, Levamisole Hydrochloride], the EC50 on Hco-ACC-2 F200Y (setting [1]) is 0.039 ± 0.003 mM; at Hco-ACC-2 W248Y it was over 1 mM; on Hco-ACC-2 W248F it was over 1 mM; on Hco-ACC-2 F200W/W248F, over 20 mM.

Consider `CN1CCCN=C1/C=C/c1cccs1` [Pyrantel, Pyrantel Citrate Salt], for which the EC50 was 0.044 ± 0.002 mM at Hco-ACC-2 F200Y (setting [1]); 0.16 ± 0.02 mM at Hco-ACC-2 F200W; over 1 mM at Hco-ACC-2 W248Y; over 1 mM at Hco-ACC-2 W248F; over 20 mM on Hco-ACC-2 F200W/W248F.

Take `CC(C[N+](C)(C)C)OC(N)=O` (stereo not drawn) [Urecholine, Carbamyl-β-methylcholine chloride]: the EC50 on Hco-ACC-2 F200Y (setting [1]) was 0.081 ± 0.003 mM; at Hco-ACC-2 F200W, 2.15 ± 0.215 mM; at Hco-ACC-2 W248Y, over 1 mM; at Hco-ACC-2 W248F, over 1 mM; at Hco-ACC-2 F200W/W248F, over 20 mM.

`C[N+](C)(C)CCO` [Choline, Choline Chloride]: the EC50 on Hco-ACC-2 F200Y (setting [1]) is 0.65 ± 0.013 mM; on Hco-ACC-2 F200W it was 4.77 ± 0.543 mM; at Hco-ACC-2 W248Y it was over 1 mM; at Hco-ACC-2 W248F, over 1 mM; on Hco-ACC-2 F200W/W248F, over 20 mM.

In the case of `C[N+](C)(C)CCOC(N)=O` [Carbachol, Carbamoylcholine Chloride], the 50% effective concentration (EC50) at Hco-ACC-2 F200Y (setting [1]) was 0.0097 ± 0.0005 mM; on Hco-ACC-2 F200W it was 0.067 ± 0.004 mM; on Hco-ACC-2 W248Y, over 1 mM; at Hco-ACC-2 W248F, over 1 mM; on Hco-ACC-2 F200W/W248F it was over 20 mM.

As for `CN1CCC[C@H]1c1cccnc1` [Nicotine], on Hco-ACC-2 F200Y (EC50, F200Y mutant), the EC50 is 0.277 ± 0.008 mM.

For `CC(=O)OC(C)C[N+](C)(C)C` (stereo not drawn) [Methacholine, Acetyl-β-methylcholine Chloride], the EC50 at Hco-ACC-2 F200Y (setting [1]) was 0.02 ± 0.001 mM; at Hco-ACC-2 F200W it was 0.644 ± 0.084 mM; on Hco-ACC-2 W248Y it was over 1 mM; on Hco-ACC-2 W248F it was over 1 mM; on Hco-ACC-2 F200W/W248F it was over 20 mM.
